{
  "source": "paper PMC12801976",
  "about": "“Enzyme-Powered CO2 Utilization: A Bifunctional Immobilized Biocatalyst for Intensified CCU of Industrial Feedstocks to High-Value Chemicals” (ACS Sustainable Chemistry & Engineering, 2025)",
  "target": "T1, glycerol dehydrogenase (GlyDH)",
  "T1 construct": "His-tagged, produced and purified in house (details only in SI); multimeric zinc metalloenzyme; free enzyme",
  "test": "NADH formation at […] nm, DHA dose series",
  "assay_type": "biochemical",
  "details": "free enzyme; product inhibition; standard assay 100 mM glycerol, 2.5 mM NAD+, 100 mM phosphate pH 7.0, 30 °C",
  "data": [
    {"molecule": "O=C(CO)CO", "note": "[DHA, dihydroxyacetone]", "values": [
      {"measurement": "IC50", "result": 330, "unit": "µM"}
    ]}
  ]
}
